Test results as given in patent US20180303807A1, “ANDROGEN RECEPTOR LIGANDS” (DUKE UNIVERSITY, priority 2015, published 2018).

Key:
Format in all cases: cell-based
AR [1] = target: T1, AR (Homo sapiens, UniProt P10275); assay: Reporter gene assay, AR transcriptional (MMTV-Luc) in CV1 cells; conditions: pcDNA-AR + MMTV-Luc, 0.1 nM R1881 plus test compound, 24 hrs, read-out: B1 = AR transcriptional IC50 (μM) in CV1 cells
T1 construct: expressed in transfected cells; host or cells: CV1 cells
T1 sequence (P10275 1-920): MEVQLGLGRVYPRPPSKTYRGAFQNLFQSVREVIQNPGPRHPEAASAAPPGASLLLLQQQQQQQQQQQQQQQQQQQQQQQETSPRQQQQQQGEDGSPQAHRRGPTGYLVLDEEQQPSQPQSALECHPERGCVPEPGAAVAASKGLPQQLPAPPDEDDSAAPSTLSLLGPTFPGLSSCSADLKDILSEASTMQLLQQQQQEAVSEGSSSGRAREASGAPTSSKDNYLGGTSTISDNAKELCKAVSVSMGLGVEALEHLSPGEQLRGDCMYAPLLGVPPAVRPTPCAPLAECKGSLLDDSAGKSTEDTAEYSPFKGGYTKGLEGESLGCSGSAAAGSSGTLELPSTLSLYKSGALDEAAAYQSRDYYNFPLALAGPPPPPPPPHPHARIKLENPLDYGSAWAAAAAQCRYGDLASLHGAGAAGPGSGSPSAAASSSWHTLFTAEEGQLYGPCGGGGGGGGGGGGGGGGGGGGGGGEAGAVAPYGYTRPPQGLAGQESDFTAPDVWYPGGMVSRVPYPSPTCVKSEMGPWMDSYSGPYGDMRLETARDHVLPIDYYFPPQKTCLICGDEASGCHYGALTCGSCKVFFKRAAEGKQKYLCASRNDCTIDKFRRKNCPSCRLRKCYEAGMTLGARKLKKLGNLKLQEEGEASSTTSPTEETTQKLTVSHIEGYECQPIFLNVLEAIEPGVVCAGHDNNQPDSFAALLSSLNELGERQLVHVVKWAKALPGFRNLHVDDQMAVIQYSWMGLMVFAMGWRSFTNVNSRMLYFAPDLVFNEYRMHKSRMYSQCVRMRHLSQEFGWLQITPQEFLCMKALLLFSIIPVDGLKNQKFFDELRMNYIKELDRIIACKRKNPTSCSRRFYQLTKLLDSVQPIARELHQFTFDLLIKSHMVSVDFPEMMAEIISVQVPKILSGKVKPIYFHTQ
Outline: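 CV1 cells transiently co-transfected with human AR, MMTV-Luc reporter and Renilla-Luc (transfection efficiency and toxicity read-out), then stimulated 24 h with 0.1 nM R1881 plus increasing test compound concentrations. Firefly and Renilla luciferase quantified by dual-luciferase assay; IC50 derived from concentration-response.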

CV1 cells = assay: Toxicity of test compound in the CV1 reporter gene assay (Renilla-Luc)
Procedure: Reporter Gene Assay (IC50 determination, Table 2, B1-B3). CV1 cells were seeded into 96-well cell culture plates and transfected with Lipofectin. For AR transcriptional assays, the DNA mixture consisted of pcDNA-AR, MMTV-Luc (androgen responsive reporter gene), and Renilla-Luc (for assessing transfection efficiency and toxicity). Following overnight incubation, cells were induced with hormone (0.1 nM R1881 (synthetic AR agonist) plus increasing concentrations of test compound) for 24 hrs. Cells were lysed and luciferase activity was quantified using Dual Luciferase Reagent (DLR). IC50 determination was assessed using GraphPad Prism software.

AR [2] = assay: Real-time PCR of AR target gene transcription in LNCaP-AR (AR overexpressing) cells, CRPC model; set-up: key to B5 = Relative antagonist activity (plus 0.1 nM R1881) of test compounds (20 μM) in AR overexpressing LNCaP cells (NKX3.1 AR target gene) / B7 = Relative antagonist activity (plus 0.1 nM R1881) of test compounds (20 μM) in AR overexpressing LNCaP cells (PSA AR target gene): a score of 1 indicates higher antagonist efficacy (highly desired activity) than benchmark compound enzalutamide; a score of 2 indicates equal antagonist efficacy to enzalutamide (desirable); a score of 3 indicates antagonist efficacy between enzalutamide and bicalutamide (less desirable activity); a score of 4 indicates antagonist efficacy equal to bicalutamide (liability); a score of 5 indicates antagonist efficacy worse than bicalutamide (liability); key to B4 = Relative agonist activity (no R1881) of test compounds (20 μM) in AR overexpressing LNCaP cells (NKX3.1 AR target gene) / B6 Relative agonist activity (no R1881) of test compounds (20 μM) in AR overexpressing LNCaP cells (PSA AR target gene): a score of 1 indicates less agonism (highly desired activity) than benchmark compound enzalutamide; a score of 2 indicates equal agonism to enzalutamide (desirable); a score of 3 indicates agonism between enzalutamide and bicalutamide (less desirable activity); a score of 4 indicates equal agonism to bicalutamide (liability); a score of 5 indicates higher agonism than bicalutamide (liability); conditions: 20 μM, score vs enzalutamide/bicalutamide; for B4 = Relative agonist activity (no R1881) of test compounds (20 μM) in AR overexpressing LNCaP cells (NKX3.1 AR target gene): no R1881, NKX3.1 gene; for B5 = Relative antagonist activity (plus 0.1 nM R1881) of test compounds (20 μM) in AR overexpressing LNCaP cells (NKX3.1 AR target gene): plus 0.1 nM R1881, NKX3.1 gene; for B7 = Relative antagonist activity (plus 0.1 nM R1881) of test compounds (20 μM) in AR overexpressing LNCaP cells (PSA AR target gene): plus 0.1 nM R1881, PSA gene
Procedure: Real-Time PCR (CRPC model of AR overexpressing prostate cancer cells, Table 2, B4-B7). LNCaP-AR (AR overexpressing cells) cells were seeded in 12-well plates in RPMI 1640 (8% charcoal-stripped fetal calf serum (CFS)). […] AR target gene transcription (PSA, NKX3.1, FKBP5) was assessed by realtime PCR.
For B4-B7, scoring system is based on the relative AR target gene agonist/antagonist activity of test compounds when compared to benchmark compounds enzalutamide or bicalutamide. […] The lack of agonist activity is desirable for therapies intended to treat CRPC. For B4 and B6, a score of 1 indicates less agonism (highly desired activity) than benchmark compound enzalutamide, a score of 2 indicates equal agonism to enzalutamide (desirable), a score of 3 indicates agonism between enzalutamide and bicalutamide (less desirable activity), a score of 4 indicates equal agonism to bicalutamide (liability), and a score of 5 indicates higher agonism than bicalutamide (liability). For B5 and B7 a score of 1 indicates higher antagonist efficacy (highly desired activity) than benchmark compound enzalutamide, a score of 2 indicates equal antagonist efficacy to enzalutamide (desirable), a score of 3 indicates antagonist efficacy between enzalutamide and bicalutamide (less desirable activity), a score of 4 indicates antagonist efficacy equal to bicalutamide (liability), and a score of 5 indicates antagonist efficacy worse than bicalutamide (liability) For B9, Compounds that degrade AR (greater than 50% degradation at 10 μM) are indicated.

Row | Compound | IC50 (AR [1]) | B2 = % Toxicity of test compound (20 μM) (CV1 cells) | B3 = % Toxicity of test compound (60 μM) (CV1 cells) | B4 = Relative agonist activity (no R1881) of test compounds (20 μM) in AR overexpressing LNCaP cells (NKX3.1 AR target gene) (AR [2]) | B6 Relative agonist activity (no R1881) of test compounds (20 μM) in AR overexpressing LNCaP cells (PSA AR target gene) (AR [2]) | B5 = Relative antagonist activity (plus 0.1 nM R1881) of test compounds (20 μM) in AR overexpressing LNCaP cells (NKX3.1 AR target gene) (AR [2]) | B7 = Relative antagonist activity (plus 0.1 nM R1881) of test compounds (20 μM) in AR overexpressing LNCaP cells (PSA AR target gene) (AR [2])
1 | O=C1CCCC2=C1C(c1ccc(Cl)cc1Cl)c1c(ccc3ccccc13)N2 (stereo not drawn) [Compound A7] | 3.8 µM | 75% | 91% | 1 | 1 | 2 | 1
2 | CC1(C)CC(=O)C2=C(C1)Nc1ccc3ccccc3c1C2c1ccc(Cl)c([N+](=O)[O-])c1 (stereo not drawn) [Compound A6] | 3.8 µM | 0% | 0% | 1 | 1 | 1 | 1
3 | CC1(C)CC(=O)C2=C(C1)Nc1ccc3ccccc3c1C2c1ccc(C#N)cc1 (stereo not drawn) [Compound A3] | 1.6 µM | 0% | 24% | 1 | 1 | 1 | 1
